We go through four molecules from the NIST ThermoML archive (doi:10.1016/j.fluid.2018.05.011).

The conditions of this data set: Liquid; Resistive pulse heating.

SMILES strings stand for the structures. Numbers after ± are expanded uncertainties.

`OCCOCCOCCOCCOCCOCCO` [3,6,9,12,15-pentaoxaheptadecane-1,17-diol]: the Critical pressure was determined as 1820 ± 70 kPa and the Critical temperature is 868 ± 13 K.

`OCCOCCOCCOCCOCCO` [3,6,9,12-tetraoxatetradecane-1,14-diol]: the Critical pressure turned out to be 2130 ± 90 kPa and the Critical temperature is given as 842 ± 13 K.

`OCCOCCO` [diethylene glycol]: the Critical pressure stood at 4830 ± 190 kPa and the Critical temperature turned out to be 753 ± 11 K.

Turning to `OCCOCCOCCO` [triethylene glycol], the Critical pressure is given as 3570 ± 140 kPa and the Critical temperature was 788 ± 12 K.
